{
  "source": "PubChem BioAssay (NCI)",
  "experiment_in_all_cases": "NCI-60 cell line screen, 48 h",
  "key": {"A498 renal": {"tested_on": "A498 renal"}, "A549 NSCLC": {"tested_on": "A549 NSCLC"}, "ACHN renal": {"tested_on": "ACHN renal"}, "BT-549 breast": {"tested_on": "BT-549 breast"}, "CAKI-1 renal": {"tested_on": "CAKI-1 renal"}, "COLO 205 colon": {"tested_on": "COLO 205 colon"}, "DU-145 prostate": {"tested_on": "DU-145 prostate"}, "EKVX NSCLC": {"tested_on": "EKVX NSCLC"}, "HCT-116 colon": {"tested_on": "HCT-116 colon"}, "HCT-15 colon": {"tested_on": "HCT-15 colon"}, "HL-60(TB) leukemia": {"tested_on": "HL-60(TB) leukemia"}, "HOP-62 NSCLC": {"tested_on": "HOP-62 NSCLC"}, "HOP-92 NSCLC": {"tested_on": "HOP-92 NSCLC"}, "HS 578T breast": {"tested_on": "HS 578T breast"}, "HT29 colon": {"tested_on": "HT29 colon"}, "IGROV1 ovarian": {"tested_on": "IGROV1 ovarian"}, "K-562 leukemia": {"tested_on": "K-562 leukemia"}, "KM12 colon": {"tested_on": "KM12 colon"}, "LOX IMVI melanoma": {"tested_on": "LOX IMVI melanoma"}, "M14 melanoma": {"tested_on": "M14 melanoma"}, "MCF7 breast": {"tested_on": "MCF7 breast"}, "MDA-MB-231 breast": {"tested_on": "MDA-MB-231 breast"}, "MDA-MB-435": {"tested_on": "MDA-MB-435"}, "MOLT-4 leukemia": {"tested_on": "MOLT-4 leukemia"}, "NCI-H226 lung": {"tested_on": "NCI-H226 lung"}, "NCI-H23 lung": {"tested_on": "NCI-H23 lung"}},
  "note": "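Step 1: Grow cells in 96-well plates. Step 2: Expose to compound for 48 hours at 5 concentrations. Step 3: Interpolate endpoints linearly; if unreached, use highest concentration. GI50 = concentration required for 50% inhibition of growth. TGI denotes the concentration required for complete inhibition of growth.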",
  "data": [
    {"smiles": "Nc1cc(N)c2nc(-c3ccccc3)c(Sc3ccc(F)cc3)nc2c1", "values": [
      {"measurement": "GI50", "setting": "A498 renal", "result": 27.5, "unit": "µM"},
      {"measurement": "TGI", "setting": "A498 renal", "result": 46, "unit": "µM"},
      {"measurement": "GI50", "setting": "A549 NSCLC", "result": 13.5, "unit": "µM"},
      {"measurement": "TGI", "setting": "A549 NSCLC", "result": 30.9, "unit": "µM"},
      {"measurement": "GI50", "setting": "ACHN renal", "result": 14.2, "unit": "µM"},
      {"measurement": "TGI", "setting": "ACHN renal", "result": 27.7, "unit": "µM"},
      {"measurement": "GI50", "setting": "BT-549 breast", "result": 22, "unit": "µM"},
      {"measurement": "TGI", "setting": "BT-549 breast", "result": 44.1, "unit": "µM"},
      {"measurement": "GI50", "setting": "CAKI-1 renal", "result": 18.1, "unit": "µM"},
      {"measurement": "TGI", "setting": "CAKI-1 renal", "result": 36.6, "unit": "µM"},
      {"measurement": "GI50", "setting": "COLO 205 colon", "result": 22.1, "unit": "µM"},
      {"measurement": "TGI", "setting": "COLO 205 colon", "result": 47.9, "unit": "µM"},
      {"measurement": "GI50", "setting": "DU-145 prostate", "result": 19.8, "unit": "µM"},
      {"measurement": "TGI", "setting": "DU-145 prostate", "result": 37.7, "unit": "µM"},
      {"measurement": "GI50", "setting": "EKVX NSCLC", "result": 20.5, "unit": "µM"},
      {"measurement": "TGI", "setting": "EKVX NSCLC", "result": 41.2, "unit": "µM"},
      {"measurement": "GI50", "setting": "HCT-116 colon", "result": 14.7, "unit": "µM"},
      {"measurement": "TGI", "setting": "HCT-116 colon", "result": 28.3, "unit": "µM"},
      {"measurement": "GI50", "setting": "HCT-15 colon", "result": 13.4, "unit": "µM"},
      {"measurement": "TGI", "setting": "HCT-15 colon", "result": 27.4, "unit": "µM"},
      {"measurement": "GI50", "setting": "HL-60(TB) leukemia", "result": 39.3, "unit": "µM"},
      {"measurement": "TGI", "setting": "HL-60(TB) leukemia", "result": "> 100", "unit": "µM"},
      {"measurement": "GI50", "setting": "HOP-62 NSCLC", "result": 16.6, "unit": "µM"},
      {"measurement": "TGI", "setting": "HOP-62 NSCLC", "result": 34.3, "unit": "µM"},
      {"measurement": "GI50", "setting": "HOP-92 NSCLC", "result": 22.9, "unit": "µM"},
      {"measurement": "TGI", "setting": "HOP-92 NSCLC", "result": 54.8, "unit": "µM"},
      {"measurement": "GI50", "setting": "HS 578T breast", "result": 27, "unit": "µM"},
      {"measurement": "TGI", "setting": "HS 578T breast", "result": 62, "unit": "µM"},
      {"measurement": "GI50", "setting": "HT29 colon", "result": 17.8, "unit": "µM"},
      {"measurement": "TGI", "setting": "HT29 colon", "result": 45.9, "unit": "µM"},
      {"measurement": "GI50", "setting": "IGROV1 ovarian", "result": 25, "unit": "µM"},
      {"measurement": "TGI", "setting": "IGROV1 ovarian", "result": "> 100", "unit": "µM"},
      {"measurement": "GI50", "setting": "K-562 leukemia", "result": 39.6, "unit": "µM"},
      {"measurement": "TGI", "setting": "K-562 leukemia", "result": "> 100", "unit": "µM"},
      {"measurement": "GI50", "setting": "KM12 colon", "result": 20.8, "unit": "µM"},
      {"measurement": "TGI", "setting": "KM12 colon", "result": 48.5, "unit": "µM"},
      {"measurement": "GI50", "setting": "LOX IMVI melanoma", "result": 22.7, "unit": "µM"},
      {"measurement": "TGI", "setting": "LOX IMVI melanoma", "result": 41.2, "unit": "µM"},
      {"measurement": "GI50", "setting": "M14 melanoma", "result": 15.9, "unit": "µM"},
      {"measurement": "TGI", "setting": "M14 melanoma", "result": 30.8, "unit": "µM"},
      {"measurement": "GI50", "setting": "MCF7 breast", "result": 20, "unit": "µM"},
      {"measurement": "TGI", "setting": "MCF7 breast", "result": 62.5, "unit": "µM"},
      {"measurement": "GI50", "setting": "MDA-MB-231 breast", "result": 17.5, "unit": "µM"},
      {"measurement": "TGI", "setting": "MDA-MB-231 breast", "result": 38, "unit": "µM"},
      {"measurement": "GI50", "setting": "MDA-MB-435", "result": 16.3, "unit": "µM"},
      {"measurement": "TGI", "setting": "MDA-MB-435", "result": 32.9, "unit": "µM"},
      {"measurement": "GI50", "setting": "MOLT-4 leukemia", "result": "> 100", "unit": "µM"},
      {"measurement": "TGI", "setting": "MOLT-4 leukemia", "result": "> 100", "unit": "µM"},
      {"measurement": "GI50", "setting": "NCI-H226 lung", "result": 19, "unit": "µM"},
      {"measurement": "TGI", "setting": "NCI-H226 lung", "result": 46.4, "unit": "µM"},
      {"measurement": "GI50", "setting": "NCI-H23 lung", "result": 19, "unit": "µM"},
      {"measurement": "TGI", "setting": "NCI-H23 lung", "result": 39.4, "unit": "µM"}
    ]}
  ]
}
